Source: patent US20260055104A1, “CRYSTAL FORM OF HETEROARYL DERIVATIVE PARP INHIBITOR AND USE THEREOF” (priority 2022, published 2026)

Legend:
[1] = tested on: Human breast cancer cells MDA-MB-436; experiment: MDA-MB-436 cell activity test (CellTiter-Glo); type: cell-based; conditions: 168 h, MDA-MB-436, 7 days incubation
Description: On day 1, the cells in the exponential growth phase were collected, and the cell suspension was adjusted to 4000 cells/135 μL with the culture medium. 135 μL of the cell suspension was added to each well of a 96-well cell culture plate and incubated overnight. On day 2, compounds at different concentrations were added, and the plate was placed in the incubator and incubated for 7 days. After the incubation was completed, according to operation instructions for a CellTiter-Glo kit (Promega, G7573), 75 μL of CTG solution, which had already been pre-melted and equilibrated to room temperature, was added to each well, and the mixture was uniformly mixed for 2 min using a microplate shaker. The plate was placed at room temperature for 10 min, and then […] signal values were measured using an Envision2104 plate reader (PerkinElmer). […] The IC50 value was calculated using GraphPad Prism software.

[2] = tested on: MDA-MB-436 subcutaneous transplanted tumor; experiment: Mouse MDA-MB-436 subcutaneous in vivo transplanted tumor model; design: species or system BALB/c nude mice
Description: Human breast cancer cells MDA-MB-436 were placed in Leibovitz's L-15 medium (supplemented with 10 μg/mL insulin, 16 μg/mL glutathione, 10% fetal bovine serum and 1% penicillin-streptomycin solution) and cultured at 37° C. Conventional digestion treatment with trypsin was performed twice a week for passage. When the cell saturation was 80%-90%, and the number reached the requirement, the cells were harvested, counted, and inoculated. BALB/c nude mice (from Beijing Vital River Laboratory Animal Technology Co., Ltd.) were subcutaneously inoculated with 0.2 mL (10×10^6) of MDA-MB-436 cells (plus matrigel, with the volume ratio of 1:1) on the right back. When the average tumor volume reached about 180 mm^3, grouping and administration were performed (marked as Day 0). The solvent group was given 5% DMSO, 30% PEG400 and 65% of 20% sulfobutyl-β-cyclodextrin solution, and the administration group was given the compound (Day 0-Day 10:1 mg/kg; Day 11-Day 28:0.1 mg/kg). The administration frequency was once a day, the administration cycle was 29 days, and the drug withdrawal observation period was set to 14 days. After grouping, the tumor diameter was measured twice a week with a vernier caliper. The formula for calculating the tumor volume was: V=0.5×a×b^2, where a and b represented the long and short diameters of the tumor, respectively.

[3] = Pharmacokinetic test in rats; type: in vivo, SD rats; conditions: rat, i.g. 10 mg/kg
Description: • 1.1 Experimental animals: male SD rats, about 220 g, 6-8 weeks old, 6 rats/compound. Purchased from Chengdu Ddossy Experimental Animals Co., Ltd. • 1.2 Experimental design: on the day of the experiment, 6 SD rats were randomly grouped according to their body weights. The animals were fasted with water available for 12 to 14 h one day before the administration and were fed 4 h after the administration. [table] Before and after the administration, 0.15 mL of blood was taken from the orbit of the animals under isoflurane anesthesia and placed in an EDTAK2 centrifuge tube. The blood was centrifuged at 5000 rpm and 4° C. for 10 min to collect plasma. The blood collection time points for the intravenous administration group and intragastric administration group were: 0, 5 min, 15 min, 30 min, 1 h, 2 h, 4 h, 6 h, 8 h and 24 h. Before analysis and detection, all samples were stored at −80° C. The samples were analyzed quantitatively by LC-MS/MS.

[4] = Stability test of crystal form (purity by HPLC); type: physicochemical
Description: Samples were taken and tested at 92.5% RH, 40° C. and 60° C. respectively. The purity (represented by a percentage) was detected by HPLC.
With regard to methods for preparing test solutions and conditions for detecting purity by HPLC, reference was made to Tables 13 and 14.

CCc1cc2ncc(CN3CCN(c4ccc(C(=O)NC5CC5)nc4)CC3)cc2[nH]c1=O [Compound I, N-cyclopropyl-5-(4-((7-ethyl-6-oxo-5,6-dihydro-1,5-naphthyridin-3-yl)methyl)piperazin-1-yl)pyridine carboxamide]
inhibition at 10 µM ([1]; 10 μM, read-out: Max inh. % 10 μM): 89.4% | IC50 [1]: 2 nM | tumor growth after the drug withdrawal ([2]; 14 days drug withdrawal observation): did not grow again | body weight of the animals ([2]; Day 0-10 1 mg/kg, Day 11-28 0.1 mg/kg, once a day): no significant decrease | TGI ([2]; after 28 days of administration, Day 0-10 1 mg/kg, Day 11-28 0.1 mg/kg, once a day): 119% | F [3]: 98.8%

CCc1cc2ncc(CN3CCN(c4ccc(C(=O)NC5CC5)nc4)CC3)cc2[nH]c1=O [crystal form G, N-cyclopropyl-5-(4-((7-ethyl-6-oxo-5,6-dihydro-1,5-naphthyridin-3-yl)methyl)piperazin-1-yl)pyridine carboxamide]
Maximum individual impurity ([4]; 0 d): 0.494% | RRT 0.31 impurity ([4]; 0 d): 0.494% | RRT 0.36 impurity ([4]; 0 d): 0.071% | RRT 0.49 impurity ([4]; 0 d): 0.170% | RRT 0.72 impurity ([4]; 0 d): 0.248% | RRT 1.00 (purity by HPLC) ([4]; 0 d): 98.425% | RRT 1.14 impurity ([4]; 0 d): 0.065% | RRT 1.33 impurity ([4]; 0 d): 0.079% | Total impurity ([4]; 0 d): 1.575% | Maximum individual impurity ([4]; 40° C.-6 d): 0.438% | RRT 0.31 impurity ([4]; 40° C.-6 d): 0.438% | RRT 0.36 impurity ([4]; 40° C.-6 d): 0.097% | RRT 0.49 impurity ([4]; 40° C.-6 d): 0.195% | RRT 0.72 impurity ([4]; 40° C.-6 d): 0.241% | RRT 1.00 (purity by HPLC) ([4]; 40° C.-6 d): 98.494% | RRT 1.14 impurity ([4]; 40° C.-6 d): 0.071% | RRT 1.33 impurity ([4]; 40° C.-6 d): 0.069% | Total impurity ([4]; 40° C.-6 d): 1.506% | Maximum individual impurity ([4]; 40° C.-10 d): 0.507% | RRT 0.31 impurity ([4]; 40° C.-10 d): 0.507% | RRT 0.36 impurity ([4]; 40° C.-10 d): 0.100% | RRT 0.49 impurity ([4]; 40° C.-10 d): 0.194% | RRT 0.72 impurity ([4]; 40° C.-10 d): 0.232% | RRT 1.00 (purity by HPLC) ([4]; 40° C.-10 d): 98.459% | RRT 1.14 impurity ([4]; 40° C.-10 d): 0.069% | RRT 1.33 impurity ([4]; 40° C.-10 d): 0.061% | Total impurity ([4]; 40° C.-10 d): 1.541% | Maximum individual impurity ([4]; 40° C.-30 d): 0.467% | RRT 0.31 impurity ([4]; 40° C.-30 d): 0.467% | RRT 0.36 impurity ([4]; 40° C.-30 d): 0.115% | RRT 0.49 impurity ([4]; 40° C.-30 d): 0.144% | RRT 0.72 impurity ([4]; 40° C.-30 d): 0.252% | RRT 1.00 (purity by HPLC) ([4]; 40° C.-30 d): 98.519% | RRT 1.14 impurity ([4]; 40° C.-30 d): 0.077% | RRT 1.33 impurity ([4]; 40° C.-30 d): 0.060% | Total impurity ([4]; 40° C.-30 d): 1.481% | Maximum individual impurity ([4]; 60° C.-6 d): 0.452% | RRT 0.31 impurity ([4]; 60° C.-6 d): 0.452% | RRT 0.36 impurity ([4]; 60° C.-6 d): 0.097% | RRT 0.49 impurity ([4]; 60° C.-6 d): 0.193% | RRT 0.72 impurity ([4]; 60° C.-6 d): 0.229% | RRT 1.00 (purity by HPLC) ([4]; 60° C.-6 d): 98.522% | RRT 1.14 impurity ([4]; 60° C.-6 d): 0.070% | RRT 1.33 impurity ([4]; 60° C.-6 d): 0.064% | Total impurity ([4]; 60° C.-6 d): 1.478% | Maximum individual impurity ([4]; 60° C.-10 d): 0.498% | RRT 0.31 impurity ([4]; 60° C.-10 d): 0.498% | RRT 0.36 impurity ([4]; 60° C.-10 d): 0.103% | RRT 0.49 impurity ([4]; 60° C.-10 d): 0.206% | RRT 0.72 impurity ([4]; 60° C.-10 d): 0.247% | RRT 1.00 (purity by HPLC) ([4]; 60° C.-10 d): 98.447% | RRT 1.14 impurity ([4]; 60° C.-10 d): 0.068% | RRT 1.33 impurity ([4]; 60° C.-10 d): 0.069% | Total impurity ([4]; 60° C.-10 d): 1.553% | Maximum individual impurity ([4]; 60° C.-30 d): 0.457% | RRT 0.31 impurity ([4]; 60° C.-30 d): 0.457% | RRT 0.36 impurity ([4]; 60° C.-30 d): 0.112% | RRT 0.49 impurity ([4]; 60° C.-30 d): 0.145% | RRT 0.72 impurity ([4]; 60° C.-30 d): 0.244% | RRT 1.00 (purity by HPLC) ([4]; 60° C.-30 d): 98.499% | RRT 1.14 impurity ([4]; 60° C.-30 d): 0.084% | RRT 1.33 impurity ([4]; 60° C.-30 d): 0.056% | Total impurity ([4]; 60° C.-30 d): 1.501% | chemical stability ([4]; 92.5% RH, 40° C. and 60° C., up to 30 d): good chemical stability | Maximum individual impurity ([4]; 92.5% RH-6 d): 0.468% | RRT 0.31 impurity ([4]; 92.5% RH-6 d): 0.468% | RRT 0.36 impurity ([4]; 92.5% RH-6 d): 0.107% | RRT 0.49 impurity ([4]; 92.5% RH-6 d): 0.191% | RRT 0.72 impurity ([4]; 92.5% RH-6 d): 0.244% | RRT 1.00 (purity by HPLC) ([4]; 92.5% RH-6 d): 98.503% | RRT 1.14 impurity ([4]; 92.5% RH-6 d): 0.068% | RRT 1.33 impurity ([4]; 92.5% RH-6 d): 0.066% | Total impurity ([4]; 92.5% RH-6 d): 1.497% | Maximum individual impurity ([4]; 92.5% RH-10 d): 0.518% | RRT 0.31 impurity ([4]; 92.5% RH-10 d): 0.518% | RRT 0.36 impurity ([4]; 92.5% RH-10 d): 0.110% | RRT 0.49 impurity ([4]; 92.5% RH-10 d): 0.206% | RRT 0.72 impurity ([4]; 92.5% RH-10 d): 0.246% | RRT 1.00 (purity by HPLC) ([4]; 92.5% RH-10 d): 98.358% | RRT 1.14 impurity ([4]; 92.5% RH-10 d): 0.073% | RRT 1.33 impurity ([4]; 92.5% RH-10 d): 0.066% | Total impurity ([4]; 92.5% RH-10 d): 1.642% | Maximum individual impurity ([4]; 92.5% RH-30 d): 0.475% | RRT 0.31 impurity ([4]; 92.5% RH-30 d): 0.475% | RRT 0.36 impurity ([4]; 92.5% RH-30 d): 0.099% | RRT 0.49 impurity ([4]; 92.5% RH-30 d): 0.137% | RRT 0.72 impurity ([4]; 92.5% RH-30 d): 0.243% | RRT 1.00 (purity by HPLC) ([4]; 92.5% RH-30 d): 98.499% | RRT 1.14 impurity ([4]; 92.5% RH-30 d): 0.075% | RRT 1.33 impurity ([4]; 92.5% RH-30 d): 0.056% | Total impurity ([4]; 92.5% RH-30 d): 1.501%
